From patent US11382328B2, “Rapid drug discovery methods for pathogen inactivation” (priority 2019, dated 2022)
“And” between values parts separate entries of the source, which are not always exact repeats. Equal entries are not always repeated. Structures can show the parent of a compound that is named as a salt.

Test system: E. coli strain W3110
Assay: Synergy assays: Biolog chemical sensitivity panels with Group IB metal, coefficient of drug interaction (CDI) from relative growth
Assay type: cell-based
Conditions: for CDI (coefficient of drug interaction), copper mixed with biocide: Copper (mM) section; for CDI (coefficient of drug interaction), gold + biocide: Gold (μM)
[1] = 1st of 3 copper concentrations (value not shown), 4th of four biocide concentrations
[2] = 2nd of 3 copper concentrations (value not shown), 4th of four biocide concentrations
[3] = 3rd of 3 copper concentrations (value not shown), 4th of four biocide concentrations
[4] = Gold section of Table 5, first of three gold concentrations (μM, value not given), biocide concentration 4 of 4
[5] = Gold section of Table 5, second of three gold concentrations (μM, value not given), biocide concentration 4 of 4
[6] = Gold section of Table 5, third of three gold concentrations (μM, value not given), biocide concentration 4 of 4
[7] = Silver 0.5 μM, 4th of four biocide concentrations, E. coli
[8] = Silver 1.0 μM, 4th of four biocide concentrations, E. coli
[9] = Silver 5.0 μM, 4th of four biocide concentrations, E. coli
[10] = Gold section of Table 5, second of three gold concentrations (μM, value not given), biocide concentration 3 of 4
[11] = Gold section of Table 5, third of three gold concentrations (μM, value not given), biocide concentration 3 of 4
[12] = Silver 0.5 μM, 2nd of four biocide concentrations, E. coli
[13] = Silver 1.0 μM, 2nd of four biocide concentrations, E. coli
[14] = Silver 5.0 μM, 2nd of four biocide concentrations, E. coli
[15] = 1st of 3 copper concentrations (value not shown), 3rd of four biocide concentrations
[16] = 2nd of 3 copper concentrations (value not shown), 3rd of four biocide concentrations
[17] = 3rd of 3 copper concentrations (value not shown), 3rd of four biocide concentrations
[18] = Gold section of Table 5, first of three gold concentrations (μM, value not given), biocide concentration 3 of 4
[19] = Silver 0.5 μM, 3rd of four biocide concentrations, E. coli
[20] = Silver 1.0 μM, 3rd of four biocide concentrations, E. coli
[21] = Silver 5.0 μM, 3rd of four biocide concentrations, E. coli
[22] = Copper (mM), 1st of 3 copper concentrations (head line not shown), biocide concentration 1 of 4, E. coli
[23] = Copper (mM), 1st of 3 copper concentrations (head line not shown), biocide concentration 3 of 4, E. coli
[24] = Copper (mM), 1st of 3 copper concentrations (head line not shown), biocide concentration 4 of 4, E. coli
[25] = Copper (mM), 2nd of 3 copper concentrations (head line not shown), biocide concentration 1 of 4, E. coli
[26] = Copper (mM), 2nd of 3 copper concentrations (head line not shown), biocide concentration 3 of 4, E. coli
[27] = Copper (mM), 2nd of 3 copper concentrations (head line not shown), biocide concentration 4 of 4, E. coli
[28] = Copper (mM), 3rd of 3 copper concentrations (head line not shown), biocide concentration 1 of 4, E. coli
[29] = Copper (mM), 3rd of 3 copper concentrations (head line not shown), biocide concentration 3 of 4, E. coli
[30] = Copper (mM), 3rd of 3 copper concentrations (head line not shown), biocide concentration 4 of 4, E. coli
[31] = first of 3 gold concentrations, biocide concentration 4 of 4
[32] = second of 3 gold concentrations, biocide concentration 1 of 4
[33] = second of 3 gold concentrations, biocide concentration 4 of 4
[34] = third of 3 gold concentrations, biocide concentration 1 of 4
[35] = third of 3 gold concentrations, biocide concentration 4 of 4
[36] = Silver 0.5 μM, biocide concentration 1 of 4
[37] = Silver 0.5 μM, biocide concentration 4 of 4
[38] = Silver 1.0 μM, biocide concentration 1 of 4
[39] = Silver 1.0 μM, biocide concentration 4 of 4
[40] = Silver 5.0 μM, biocide concentration 4 of 4

N=C(N)N [guanidine hydrochloride]
CDI (coefficient of drug interaction), copper mixed with biocide [1]: Tox
CDI (coefficient of drug interaction), copper mixed with biocide [2]: Tox
CDI (coefficient of drug interaction), copper mixed with biocide [3]: Tox
CDI (coefficient of drug interaction) [4]: Tox
CDI (coefficient of drug interaction) [5]: Tox
CDI (coefficient of drug interaction) [6]: Tox
CDI (coefficient of drug interaction), silver + biocide [7]: Tox
CDI (coefficient of drug interaction), silver + biocide [8]: Tox
CDI (coefficient of drug interaction), silver + biocide [9]: Tox

OC(CCN1CCCCC1)(c1ccccc1)c1ccccc1 [pridinol]
CDI (coefficient of drug interaction), copper mixed with biocide [1]: Tox
CDI (coefficient of drug interaction), copper mixed with biocide [2]: Tox
CDI (coefficient of drug interaction), copper mixed with biocide [3]: Tox
CDI (coefficient of drug interaction) [4]: Tox
CDI (coefficient of drug interaction) [10]: Tox
CDI (coefficient of drug interaction) [5]: Tox
CDI (coefficient of drug interaction) [11]: Tox
CDI (coefficient of drug interaction) [6]: Tox
CDI (coefficient of drug interaction), silver + biocide [12]: Tox
CDI (coefficient of drug interaction), silver + biocide [7]: Tox
CDI (coefficient of drug interaction), silver + biocide [13]: Tox
CDI (coefficient of drug interaction), silver + biocide [8]: Tox
CDI (coefficient of drug interaction), silver + biocide [14]: Tox
CDI (coefficient of drug interaction), silver + biocide [9]: Tox

protamine sulfate
CDI (coefficient of drug interaction), copper mixed with biocide (1st of 3 copper concentrations (value not shown), 1st of four biocide concentrations): 0.79
CDI (coefficient of drug interaction), copper mixed with biocide (1st of 3 copper concentrations (value not shown), 2nd of four biocide concentrations): Tox
CDI (coefficient of drug interaction), copper mixed with biocide [15]: Tox
CDI (coefficient of drug interaction), copper mixed with biocide [1]: Tox
CDI (coefficient of drug interaction), copper mixed with biocide (2nd of 3 copper concentrations (value not shown), 1st of four biocide concentrations): 1.09
CDI (coefficient of drug interaction), copper mixed with biocide (2nd of 3 copper concentrations (value not shown), 2nd of four biocide concentrations): 1.26
CDI (coefficient of drug interaction), copper mixed with biocide [16]: Tox
CDI (coefficient of drug interaction), copper mixed with biocide [2]: Tox
CDI (coefficient of drug interaction), copper mixed with biocide (3rd of 3 copper concentrations (value not shown), 1st of four biocide concentrations): 0.56
CDI (coefficient of drug interaction), copper mixed with biocide (3rd of 3 copper concentrations (value not shown), 2nd of four biocide concentrations): Tox
CDI (coefficient of drug interaction), copper mixed with biocide [17]: Tox
CDI (coefficient of drug interaction), copper mixed with biocide [3]: Tox
CDI (coefficient of drug interaction) (Gold section of Table 5, first of three gold concentrations (μM, value not given), biocide concentration 2 of 4): 0.96
CDI (coefficient of drug interaction) [18]: 0.49
CDI (coefficient of drug interaction) [4]: Tox
CDI (coefficient of drug interaction) (Gold section of Table 5, second of three gold concentrations (μM, value not given), biocide concentration 1 of 4): 0.99
CDI (coefficient of drug interaction) (Gold section of Table 5, second of three gold concentrations (μM, value not given), biocide concentration 2 of 4): 0.94
CDI (coefficient of drug interaction) [10]: 2.22
CDI (coefficient of drug interaction) [5]: Tox
CDI (coefficient of drug interaction) (Gold section of Table 5, third of three gold concentrations (μM, value not given), biocide concentration 1 of 4): 0.92
CDI (coefficient of drug interaction) (Gold section of Table 5, third of three gold concentrations (μM, value not given), biocide concentration 2 of 4): 1.09
CDI (coefficient of drug interaction) [11]: 1.56
CDI (coefficient of drug interaction) [6]: Tox
CDI (coefficient of drug interaction), silver + biocide (Silver 0.5 μM, 1st of four biocide concentrations, E. coli): 1.10
CDI (coefficient of drug interaction), silver + biocide [12]: 1.15
CDI (coefficient of drug interaction), silver + biocide [19]: Tox
CDI (coefficient of drug interaction), silver + biocide [7]: Tox
CDI (coefficient of drug interaction), silver + biocide (Silver 1.0 μM, 1st of four biocide concentrations, E. coli): 0.95
CDI (coefficient of drug interaction), silver + biocide [13]: 1.00
CDI (coefficient of drug interaction), silver + biocide [20]: Tox
CDI (coefficient of drug interaction), silver + biocide [8]: Tox
CDI (coefficient of drug interaction), silver + biocide (Silver 5.0 μM, 1st of four biocide concentrations, E. coli): 0.84
CDI (coefficient of drug interaction), silver + biocide [14]: 0.90
CDI (coefficient of drug interaction), silver + biocide [21]: Tox
CDI (coefficient of drug interaction), silver + biocide [9]: Tox

polymyxin B
CDI (coefficient of drug interaction) [22]: 0.90
CDI (coefficient of drug interaction) [23]: Tox
CDI (coefficient of drug interaction) [24]: Tox
CDI (coefficient of drug interaction) [25]: 0.97 and 0.75
CDI (coefficient of drug interaction) [26]: Tox
CDI (coefficient of drug interaction) [27]: Tox
CDI (coefficient of drug interaction) [28]: 0.82 and 0.56
CDI (coefficient of drug interaction) [29]: Tox
CDI (coefficient of drug interaction) [30]: Tox
CDI (coefficient of drug interaction), gold + biocide (first of 3 gold concentrations, biocide concentration 1 of 4): 1.07 and 0.97
CDI (coefficient of drug interaction), gold + biocide [31]: Tox
CDI (coefficient of drug interaction), gold + biocide [32]: 1.10 and 0.99
CDI (coefficient of drug interaction), gold + biocide [33]: Tox
CDI (coefficient of drug interaction), gold + biocide [34]: 1.00 and 0.92
CDI (coefficient of drug interaction), gold + biocide [35]: Tox
CDI [36]: 1.37 and 0.79
CDI [37]: Tox
CDI [38]: 1.23 and 0.85
CDI [39]: Tox
CDI [40]: Tox

CCn1cc(C(=O)O)c(=O)c2cc(F)c(N3CCNC(C)C3)c(F)c21 (centres unmarked) [lomefloxacin]
CDI (coefficient of drug interaction) (Gold 50 μM, biocide concentration 4 of 4, E. coli): Tox

O=C(O)/C=C/c1ccccc1 [Cimamic acid]
CDI (coefficient of drug interaction) [22]: 0.85
CDI (coefficient of drug interaction) (Copper (mM), 1st of 3 copper concentrations (head line not shown), biocide concentration 2 of 4, E. coli): 0.74
CDI (coefficient of drug interaction) [23]: 0.87
CDI (coefficient of drug interaction) [24]: Tox
CDI (coefficient of drug interaction) [25]: 0.70
CDI (coefficient of drug interaction) (Copper (mM), 2nd of 3 copper concentrations (head line not shown), biocide concentration 2 of 4, E. coli): 0.79
CDI (coefficient of drug interaction) [26]: 1.11
CDI (coefficient of drug interaction) [27]: Tox
CDI (coefficient of drug interaction) [28]: 0.53
CDI (coefficient of drug interaction) (Copper (mM), 3rd of 3 copper concentrations (head line not shown), biocide concentration 2 of 4, E. coli): 0.54
CDI (coefficient of drug interaction) [29]: 1.11
CDI (coefficient of drug interaction) [30]: Tox
CDI (coefficient of drug interaction), gold + biocide (first of 3 gold concentrations, biocide concentration 2 of 4): 1.09
CDI (coefficient of drug interaction), gold + biocide (first of 3 gold concentrations, biocide concentration 3 of 4): 1.19
CDI (coefficient of drug interaction), gold + biocide [31]: Tox
CDI (coefficient of drug interaction), gold + biocide [32]: 0.99
CDI (coefficient of drug interaction), gold + biocide (second of 3 gold concentrations, biocide concentration 2 of 4): 1.11
CDI (coefficient of drug interaction), gold + biocide (second of 3 gold concentrations, biocide concentration 3 of 4): 0.95
CDI (coefficient of drug interaction), gold + biocide [33]: Tox
CDI (coefficient of drug interaction), gold + biocide [34]: 0.98
CDI (coefficient of drug interaction), gold + biocide (third of 3 gold concentrations, biocide concentration 2 of 4): 0.85
CDI (coefficient of drug interaction), gold + biocide (third of 3 gold concentrations, biocide concentration 3 of 4): 0.96
CDI (coefficient of drug interaction), gold + biocide [35]: Tox
CDI [36]: 0.90
CDI (Silver 0.5 μM, biocide concentration 2 of 4): 1.06
CDI (Silver 0.5 μM, biocide concentration 3 of 4): 0.73
CDI [37]: Tox
CDI [38]: 0.88
CDI (Silver 1.0 μM, biocide concentration 2 of 4): 0.93
CDI (Silver 1.0 μM, biocide concentration 3 of 4): 0.99
CDI [39]: Tox
CDI (Silver 5.0 μM, biocide concentration 1 of 4): 0.88
CDI (Silver 5.0 μM, biocide concentration 2 of 4): 0.92
CDI [40]: Tox

CCCCC(CC)CNC(=N)NC(=N)NCCCCCCNC(=N)NC(=N)NCC(CC)CCCC (centres unmarked) [alexidine]
CDI (coefficient of drug interaction), copper mixed with biocide [15]: Tox
CDI (coefficient of drug interaction), copper mixed with biocide [1]: Tox
CDI (coefficient of drug interaction), copper mixed with biocide [16]: Tox
CDI (coefficient of drug interaction), copper mixed with biocide [2]: Tox
CDI (coefficient of drug interaction), copper mixed with biocide [17]: Tox
CDI (coefficient of drug interaction), copper mixed with biocide [3]: Tox
CDI (coefficient of drug interaction) [18]: Tox
CDI (coefficient of drug interaction) [4]: Tox
CDI (coefficient of drug interaction) [10]: Tox
CDI (coefficient of drug interaction) [5]: Tox
CDI (coefficient of drug interaction) [11]: Tox
CDI (coefficient of drug interaction) [6]: Tox
CDI (coefficient of drug interaction), silver + biocide [19]: Tox
CDI (coefficient of drug interaction), silver + biocide [7]: Tox
CDI (coefficient of drug interaction), silver + biocide [20]: Tox
CDI (coefficient of drug interaction), silver + biocide [8]: Tox
CDI (coefficient of drug interaction), silver + biocide [21]: Tox
CDI (coefficient of drug interaction), silver + biocide [9]: Tox
